In ChEMBL document CHEMBL4507286 (2021):

Assays:
[1] = target: Serine/threonine-protein kinase Nek3 (Homo sapiens) (UniProt P51956)
[2] = tested on: Hepatocyte growth factor receptor (Homo sapiens), P08581 [Y1235D]
[3] = target: GABA-A receptor; anion channel (Rattus norvegicus) (UniProt O09028+P15431+P18506+P18508+P19969+P20236+P23574+P23576+P28471+P28473+P30191+P62813+P63079+P63138+Q91ZM7+Q9ES14); conditions: Compound concentration 10.0 uM
[4] = target: Phosphatidylinositol 4-kinase beta (Homo sapiens) (UniProt Q9UBF8)
Sequence of Phosphatidylinositol 4-kinase beta (Homo sapiens) (Q9UBF8 2-816 limits assumed): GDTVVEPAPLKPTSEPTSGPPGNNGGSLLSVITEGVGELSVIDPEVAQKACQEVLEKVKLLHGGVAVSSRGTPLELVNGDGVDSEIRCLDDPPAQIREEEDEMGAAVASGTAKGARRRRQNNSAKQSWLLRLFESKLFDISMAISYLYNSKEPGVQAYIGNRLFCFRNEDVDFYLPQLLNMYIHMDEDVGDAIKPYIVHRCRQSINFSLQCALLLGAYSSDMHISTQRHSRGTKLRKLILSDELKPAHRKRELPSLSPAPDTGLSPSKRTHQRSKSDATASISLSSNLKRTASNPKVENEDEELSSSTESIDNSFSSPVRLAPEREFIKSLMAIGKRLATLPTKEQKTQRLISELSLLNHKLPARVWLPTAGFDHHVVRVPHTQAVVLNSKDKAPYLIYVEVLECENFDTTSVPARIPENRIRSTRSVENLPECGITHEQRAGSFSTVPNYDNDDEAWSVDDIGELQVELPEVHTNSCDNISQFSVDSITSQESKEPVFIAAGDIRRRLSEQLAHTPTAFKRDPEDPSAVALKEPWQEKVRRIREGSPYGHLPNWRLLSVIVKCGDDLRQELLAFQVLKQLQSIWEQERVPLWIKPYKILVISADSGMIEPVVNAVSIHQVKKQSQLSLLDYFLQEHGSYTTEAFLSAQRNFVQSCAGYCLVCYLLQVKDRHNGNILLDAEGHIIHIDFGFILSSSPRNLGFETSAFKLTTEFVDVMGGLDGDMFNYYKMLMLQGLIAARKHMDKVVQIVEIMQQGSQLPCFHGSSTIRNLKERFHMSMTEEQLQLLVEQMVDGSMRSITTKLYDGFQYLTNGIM

[5] = target: Homeodomain-interacting protein kinase 4 (Homo sapiens) (UniProt Q8NE63)
[6] = target: Cyclin-dependent kinase 15 (Homo sapiens) (UniProt Q96Q40)
[7] = target: Dual specificity mitogen-activated protein kinase kinase 7 (Homo sapiens) (UniProt O14733)
[8] = target: Serine/threonine-protein kinase B-raf (Homo sapiens) (UniProt P15056)
[9] = target: Casein kinase I isoform gamma-1 (Homo sapiens) (UniProt Q9HCP0)
Sequence of Casein kinase I isoform gamma-1 (Homo sapiens) (Q9HCP0 whole entry, looked up, canonical isoform): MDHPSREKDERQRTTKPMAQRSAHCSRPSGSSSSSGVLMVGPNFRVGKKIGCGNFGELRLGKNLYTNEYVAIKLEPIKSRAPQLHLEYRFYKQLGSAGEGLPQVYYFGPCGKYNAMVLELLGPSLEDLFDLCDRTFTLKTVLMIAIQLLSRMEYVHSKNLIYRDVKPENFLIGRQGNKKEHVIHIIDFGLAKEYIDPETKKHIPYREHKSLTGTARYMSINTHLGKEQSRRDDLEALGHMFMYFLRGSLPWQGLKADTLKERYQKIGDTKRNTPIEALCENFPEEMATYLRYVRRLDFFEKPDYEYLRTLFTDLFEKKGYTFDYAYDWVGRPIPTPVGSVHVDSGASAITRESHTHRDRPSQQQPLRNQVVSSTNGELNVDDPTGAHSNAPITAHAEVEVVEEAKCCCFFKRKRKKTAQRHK

[10] = target: Serine/threonine-protein kinase PRP4 homolog (Homo sapiens) (UniProt Q13523)
[11] = target: Myosin light chain kinase 2, skeletal/cardiac muscle (Homo sapiens) (UniProt Q9H1R3)
[12] = target: Mitogen-activated protein kinase 8 (Homo sapiens) (UniProt P45983)
[13] = target: 5-hydroxytryptamine receptor 1A (Homo sapiens) (UniProt P08908); conditions: Compound concentration 10.0 uM
Sequence of 5-hydroxytryptamine receptor 1A (Homo sapiens) (P08908 whole entry): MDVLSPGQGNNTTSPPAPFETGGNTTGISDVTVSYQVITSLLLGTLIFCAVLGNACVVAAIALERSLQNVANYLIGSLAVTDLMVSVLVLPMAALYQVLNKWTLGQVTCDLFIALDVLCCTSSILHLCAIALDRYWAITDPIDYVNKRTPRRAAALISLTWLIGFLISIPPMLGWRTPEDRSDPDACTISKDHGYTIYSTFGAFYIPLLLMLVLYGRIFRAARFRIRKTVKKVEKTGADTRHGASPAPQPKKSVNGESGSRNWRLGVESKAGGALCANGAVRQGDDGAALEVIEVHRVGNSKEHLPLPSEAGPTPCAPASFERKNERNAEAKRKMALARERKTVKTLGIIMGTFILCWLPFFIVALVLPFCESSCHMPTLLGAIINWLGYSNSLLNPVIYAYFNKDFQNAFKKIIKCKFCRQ

[14] = target: Tyrosine-protein kinase Fgr (Homo sapiens) (UniProt P09769)
Sequence of Tyrosine-protein kinase Fgr (Homo sapiens) (P09769 2-529 limits assumed): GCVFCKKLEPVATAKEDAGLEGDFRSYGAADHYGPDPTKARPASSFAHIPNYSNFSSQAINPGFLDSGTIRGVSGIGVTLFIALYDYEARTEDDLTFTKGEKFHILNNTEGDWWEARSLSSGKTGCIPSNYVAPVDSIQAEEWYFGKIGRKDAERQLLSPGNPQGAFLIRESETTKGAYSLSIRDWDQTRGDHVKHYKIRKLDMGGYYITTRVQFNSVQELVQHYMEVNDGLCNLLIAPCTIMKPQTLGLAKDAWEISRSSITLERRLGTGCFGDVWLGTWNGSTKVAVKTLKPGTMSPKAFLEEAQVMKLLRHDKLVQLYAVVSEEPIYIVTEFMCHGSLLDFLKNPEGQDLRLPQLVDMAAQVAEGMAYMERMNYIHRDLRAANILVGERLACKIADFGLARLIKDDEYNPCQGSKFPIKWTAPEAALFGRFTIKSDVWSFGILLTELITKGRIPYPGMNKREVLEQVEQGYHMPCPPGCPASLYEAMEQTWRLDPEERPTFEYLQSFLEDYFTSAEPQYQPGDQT

[15] = target: Ephrin type-A receptor 3 (Homo sapiens) (UniProt P29320)
Sequence of Ephrin type-A receptor 3 (Homo sapiens) (P29320 whole entry): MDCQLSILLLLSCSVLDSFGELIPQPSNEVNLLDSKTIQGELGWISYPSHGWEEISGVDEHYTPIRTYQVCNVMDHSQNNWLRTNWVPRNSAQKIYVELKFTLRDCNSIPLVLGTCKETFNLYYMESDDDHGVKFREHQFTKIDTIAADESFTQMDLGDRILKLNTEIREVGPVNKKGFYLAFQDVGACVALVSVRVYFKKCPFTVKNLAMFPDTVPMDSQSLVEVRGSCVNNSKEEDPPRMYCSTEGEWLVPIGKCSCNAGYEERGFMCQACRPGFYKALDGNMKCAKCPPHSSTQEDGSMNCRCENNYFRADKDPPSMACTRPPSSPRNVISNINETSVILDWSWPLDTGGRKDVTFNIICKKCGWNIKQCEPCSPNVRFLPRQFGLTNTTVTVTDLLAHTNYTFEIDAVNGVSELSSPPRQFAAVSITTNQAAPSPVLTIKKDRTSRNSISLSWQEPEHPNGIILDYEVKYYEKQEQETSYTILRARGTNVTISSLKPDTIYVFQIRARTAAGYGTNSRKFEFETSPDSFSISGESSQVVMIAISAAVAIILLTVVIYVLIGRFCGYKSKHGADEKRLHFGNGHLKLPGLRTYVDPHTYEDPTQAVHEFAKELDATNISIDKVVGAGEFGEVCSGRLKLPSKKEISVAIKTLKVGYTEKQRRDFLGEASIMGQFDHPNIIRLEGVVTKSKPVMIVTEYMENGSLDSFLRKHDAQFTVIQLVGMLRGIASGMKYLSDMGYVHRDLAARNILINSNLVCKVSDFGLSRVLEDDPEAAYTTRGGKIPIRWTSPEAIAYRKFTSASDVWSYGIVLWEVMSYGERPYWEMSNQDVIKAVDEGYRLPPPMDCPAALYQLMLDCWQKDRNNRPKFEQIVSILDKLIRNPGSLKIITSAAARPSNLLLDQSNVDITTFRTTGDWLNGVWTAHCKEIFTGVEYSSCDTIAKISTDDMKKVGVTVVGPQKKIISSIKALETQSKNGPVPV

[16] = target: Dual specificity tyrosine-phosphorylation-regulated kinase 1A (Homo sapiens) (UniProt Q13627)
[17] = target: Tyrosine-protein kinase receptor TYRO3 (Homo sapiens) (UniProt Q06418)
[18] = target: Serine/threonine-protein kinase NLK (Homo sapiens) (UniProt Q9UBE8)
[19] = target: Serine/threonine-protein kinase mTOR (Homo sapiens) (UniProt P42345)
[20] = target: Tyrosine-protein kinase ZAP-70 (Homo sapiens) (UniProt P43403)
Sequence of Tyrosine-protein kinase ZAP-70 (Homo sapiens) (P43403 whole entry): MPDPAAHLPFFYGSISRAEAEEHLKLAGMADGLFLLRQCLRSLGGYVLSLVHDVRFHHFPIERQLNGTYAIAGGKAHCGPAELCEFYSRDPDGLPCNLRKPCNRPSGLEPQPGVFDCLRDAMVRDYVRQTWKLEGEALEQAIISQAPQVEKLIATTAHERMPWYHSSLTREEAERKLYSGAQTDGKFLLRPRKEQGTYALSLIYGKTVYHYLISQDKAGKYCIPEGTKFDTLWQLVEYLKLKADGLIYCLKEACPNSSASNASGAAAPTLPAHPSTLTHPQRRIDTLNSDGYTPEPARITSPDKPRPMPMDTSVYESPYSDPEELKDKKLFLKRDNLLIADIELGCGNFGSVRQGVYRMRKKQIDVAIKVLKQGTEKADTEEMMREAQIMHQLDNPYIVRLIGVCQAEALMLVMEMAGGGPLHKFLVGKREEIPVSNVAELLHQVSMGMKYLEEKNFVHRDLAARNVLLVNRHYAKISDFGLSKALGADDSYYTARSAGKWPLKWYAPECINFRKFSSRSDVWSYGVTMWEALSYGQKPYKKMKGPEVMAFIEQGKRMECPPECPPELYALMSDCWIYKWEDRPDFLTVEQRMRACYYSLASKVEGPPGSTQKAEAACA

[21] = target: Mitogen-activated protein kinase kinase kinase 15 (Homo sapiens) (UniProt Q6ZN16)
[22] = target: Serine/threonine-protein kinase D3 (Homo sapiens) (UniProt O94806)
[23] = target: Serine/threonine-protein kinase DCLK1 (Homo sapiens) (UniProt O15075)
[24] = tested on: Receptor-type tyrosine-protein kinase FLT3 (Homo sapiens), P36888 [K663Q]
[25] = target: Proto-oncogene tyrosine-protein kinase receptor Ret (Homo sapiens) (UniProt P07949)
[26] = target: Tyrosine-protein kinase JAK1 (Homo sapiens) (UniProt P23458)
[27] = target: Serine/threonine-protein kinase PAK 5 (Homo sapiens) (UniProt Q9P286)
[28] = tested on: Receptor-type tyrosine-protein kinase FLT3 (Homo sapiens), P36888 [D835Y]
[29] = target: Cyclin-dependent kinase 11B (Homo sapiens) (UniProt P21127)
[30] = target: Receptor-interacting serine/threonine-protein kinase 2 (Homo sapiens) (UniProt O43353)
Sequence of Receptor-interacting serine/threonine-protein kinase 2 (Homo sapiens) (O43353 whole entry): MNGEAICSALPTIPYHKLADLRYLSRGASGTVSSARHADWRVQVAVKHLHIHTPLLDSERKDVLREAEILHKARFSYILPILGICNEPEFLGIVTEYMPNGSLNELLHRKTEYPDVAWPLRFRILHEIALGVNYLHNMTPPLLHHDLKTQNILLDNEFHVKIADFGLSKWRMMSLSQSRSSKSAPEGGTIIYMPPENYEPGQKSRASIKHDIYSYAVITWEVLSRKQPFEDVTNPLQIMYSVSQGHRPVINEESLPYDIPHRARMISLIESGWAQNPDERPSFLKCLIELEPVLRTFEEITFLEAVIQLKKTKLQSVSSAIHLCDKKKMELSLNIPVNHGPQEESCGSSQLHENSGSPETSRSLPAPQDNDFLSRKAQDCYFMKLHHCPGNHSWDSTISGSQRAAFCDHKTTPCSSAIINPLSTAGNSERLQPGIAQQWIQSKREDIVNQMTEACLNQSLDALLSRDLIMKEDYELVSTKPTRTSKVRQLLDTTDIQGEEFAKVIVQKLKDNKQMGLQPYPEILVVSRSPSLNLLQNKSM

[31] = target: Tyrosine-protein kinase Tec (Homo sapiens) (UniProt P42680)
[32] = target: Serine/threonine-protein kinase SIK1 (Homo sapiens) (UniProt P57059)
[33] = target: Receptor-type tyrosine-protein kinase FLT3 (Homo sapiens) (UniProt P36888)
[34] = target: Tyrosine-protein kinase Srms (Homo sapiens) (UniProt Q9H3Y6)
[35] = tested on: Epidermal growth factor receptor (Homo sapiens), P00533 [T790M]
[36] = target: SRSF protein kinase 3 (Homo sapiens) (UniProt Q9UPE1)
[37] = target: Epithelial discoidin domain-containing receptor 1 (Homo sapiens) (UniProt Q08345)
[38] = tested on: Phosphatidylinositol 4,5-bisphosphate 3-kinase catalytic subunit alpha isoform (Homo sapiens), P42336 [H1047L]
[39] = target: Hepatocyte growth factor receptor (Homo sapiens) (UniProt P08581)
[40] = target: Interleukin-1 receptor-associated kinase 3 (Homo sapiens) (UniProt Q9Y616)
[41] = target: D(4) dopamine receptor (Homo sapiens) (UniProt P21917); conditions: Compound concentration 10.0 uM
[42] = target: Casein kinase I isoform gamma-3 (Homo sapiens) (UniProt Q9Y6M4)
[43] = target: Dual specificity protein kinase CLK1 (Homo sapiens) (UniProt P49759)
[44] = target: Cyclin-dependent kinase-like 3 (Homo sapiens) (UniProt Q8IVW4)
[45] = Compound concentration 1000.0 nM
[46] = Compound concentration 100.0 nM

Sequence of Serine/threonine-protein kinase Nek3 (Homo sapiens) (P51956 whole entry): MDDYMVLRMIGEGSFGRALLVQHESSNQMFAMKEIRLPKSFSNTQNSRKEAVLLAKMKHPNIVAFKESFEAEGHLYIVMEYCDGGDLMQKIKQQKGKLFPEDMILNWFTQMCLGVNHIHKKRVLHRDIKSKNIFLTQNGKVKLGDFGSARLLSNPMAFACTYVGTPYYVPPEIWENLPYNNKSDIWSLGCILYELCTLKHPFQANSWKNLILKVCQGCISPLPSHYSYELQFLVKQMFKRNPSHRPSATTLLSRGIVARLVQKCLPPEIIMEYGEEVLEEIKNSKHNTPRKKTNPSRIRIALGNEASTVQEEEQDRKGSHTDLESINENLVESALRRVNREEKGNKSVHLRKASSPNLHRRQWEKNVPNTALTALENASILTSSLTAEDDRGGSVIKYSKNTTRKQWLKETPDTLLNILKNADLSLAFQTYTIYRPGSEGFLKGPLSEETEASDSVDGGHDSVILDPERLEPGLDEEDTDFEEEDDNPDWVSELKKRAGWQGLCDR

C[C@H](NC(=O)Nc1cc2[nH]ncc2c(CO)n1)c1ccccn1 [ERKi-NC]
active: residual activity [1, 45] 46.8% | residual activity [26, 45] 42.4%
inactive: residual activity [2, 45] 100% | inhibition [3] 20.2% | residual activity [4, 45] 100% | residual activity [5, 45] 100% | residual activity [6, 45] 97.4% | residual activity [7, 45] 94.1% | residual activity [8, 45] 100% | residual activity [9, 45] 100% | residual activity [10, 45] 100% | residual activity [11, 45] 76.6% | residual activity [12, 45] 63.3% | inhibition [13] 20% | residual activity [14, 45] 100% | residual activity [15, 45] 100% | residual activity [16, 45] 100% | residual activity [17, 45] 59.2% | residual activity [18, 45] 66.3% | residual activity [19, 45] 93.1% | residual activity [20, 45] 77.9% | residual activity [21, 45] 100% | residual activity [22, 45] 100% | residual activity [23, 45] 71.1% | residual activity [24, 45] 93.5% | residual activity [25, 45] 100% | residual activity [27, 45] 100% | residual activity [28, 45] 96.8% | residual activity [29, 45] 94.2% | residual activity [30, 45] 77% | residual activity [31, 45] 100% | residual activity [32, 45] 100% | residual activity [33, 45] 100% | residual activity [34, 45] 84% | residual activity [35, 45] 100% | residual activity [36, 45] 100% | residual activity [37, 45] 74.7% | residual activity [38, 45] 100% | residual activity [39, 45] 100% | residual activity [40, 45] 99.3% | inhibition [41] 16.6% | residual activity [42, 45] 100% | residual activity [43, 45] 94.4% | residual activity [44, 45] 100%

C[C@@H](NC(=O)Nc1cc2[nH]ncc2c(CO)n1)c1ccccc1 [ERKi]
inactive: residual activity [1, 46] 79.6% | residual activity [2, 46] 90.5% | inhibition [3] 46.2% | residual activity [4, 46] 82.1% | residual activity [5, 46] 77.5% | residual activity [6, 46] 80.6% | residual activity [7, 46] 89.4% | residual activity [8, 46] 86.9% | residual activity [9, 46] 83% | residual activity [10, 46] 89.7% | residual activity [11, 46] 100% | residual activity [12, 46] 93.7% | inhibition [13] -1.87% | residual activity [14, 46] 100% | residual activity [15, 46] 79.4% | residual activity [17, 46] 100% | residual activity [18, 46] 100% | residual activity [19, 46] 71.8% | residual activity [20, 46] 95.8% | residual activity [21, 46] 100% | residual activity [22, 46] 100% | residual activity [23, 46] 90.3% | residual activity [24, 46] 96.5% | residual activity [25, 46] 92.6% | residual activity [26, 46] 77% | residual activity [27, 46] 88.7% | residual activity [28, 46] 86.2% | residual activity [29, 46] 97.4% | residual activity [30, 46] 90.3% | residual activity [31, 46] 93.6% | residual activity [32, 46] 100% | residual activity [33, 46] 85.3% | residual activity [34, 46] 87.1% | residual activity [35, 46] 82.1% | residual activity [36, 46] 100% | residual activity [37, 46] 100% | residual activity [38, 46] 82.1% | residual activity [39, 46] 94.9% | residual activity [40, 46] 80% | inhibition [41] -1% | residual activity [42, 46] 87.9% | residual activity [43, 46] 72.6% | residual activity [44, 46] 95.6%
active: residual activity [16, 46] 49%
